Assays:
[1] = molecular target: T1, jack bean urease (Canavalia ensiformis, UniProt P07374); test: % urease inhibition assay and IC50; format: biochemical
[2] = molecular target: T1, jack bean urease; test: urease enzyme kinetics study; format: biochemical

T1 sequence (P07374 whole entry, looked up): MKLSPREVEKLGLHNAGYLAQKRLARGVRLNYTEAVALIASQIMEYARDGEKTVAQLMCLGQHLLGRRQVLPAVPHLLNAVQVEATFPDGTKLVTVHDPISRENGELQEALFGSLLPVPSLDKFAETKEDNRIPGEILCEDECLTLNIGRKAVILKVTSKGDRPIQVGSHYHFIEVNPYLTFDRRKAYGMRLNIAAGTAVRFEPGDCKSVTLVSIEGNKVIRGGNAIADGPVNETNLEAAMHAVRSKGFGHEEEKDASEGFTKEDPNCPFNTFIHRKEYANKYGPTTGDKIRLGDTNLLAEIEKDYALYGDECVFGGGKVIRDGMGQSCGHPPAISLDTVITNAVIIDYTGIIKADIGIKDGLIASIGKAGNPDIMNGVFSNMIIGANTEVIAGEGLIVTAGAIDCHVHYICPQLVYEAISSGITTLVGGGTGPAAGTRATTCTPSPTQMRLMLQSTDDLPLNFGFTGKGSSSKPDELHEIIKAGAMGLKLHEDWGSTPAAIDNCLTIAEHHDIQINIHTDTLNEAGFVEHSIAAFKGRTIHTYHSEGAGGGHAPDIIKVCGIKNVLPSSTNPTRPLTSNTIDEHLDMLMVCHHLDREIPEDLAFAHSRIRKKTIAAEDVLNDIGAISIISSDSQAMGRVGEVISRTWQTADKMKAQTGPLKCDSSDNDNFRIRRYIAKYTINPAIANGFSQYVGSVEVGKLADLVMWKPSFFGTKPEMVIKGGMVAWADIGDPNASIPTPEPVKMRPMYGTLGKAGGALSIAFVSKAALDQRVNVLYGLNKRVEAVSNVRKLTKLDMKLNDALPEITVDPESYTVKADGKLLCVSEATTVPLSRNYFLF

SMILES: NC(N)=S [Thiourea, thiourea]
- % inhibition ([1]; concentration not given): 92.3%
- IC50 ([1]; read-out: IC50 (μM), mean ± SEM, triplicate, mean ± SEM): 22.6 ± 0.23 µM
- Mode of inhibition ([2]; Lineweaver–Burk plots, inhibitor 0–20 μM, urea 0.5–4.0 mM): Competitive
- Ki ([2]; calculated from secondary replot (Lineweaver–Burk)): 18.2 µM
- Vmax (app) ([2]; maximum velocity of enzymatic activity at 20 μM inhibitor concentration): 18.61 µM/min

Reference: article PMC9052855 (RSC Advances, 2020)
